According to patent US11802113B2, “Substituted pyrazole compounds, compositions containing same, and use thereof” (Shenzhen TargetRx, Inc., priority 2019, dated 2023):

What was measured:
[1] = Metabolic stability evaluation, human liver microsome; format: in vitro ADME; details: liver microsomes, pH 7.4, human liver microsome 0.5 mg/mL, compound 1 μM, NADPH, 37° C.; for microsomal CLint at 1 μM: read-out: HLM CL; for half-life at 1 μM: read-out: HLM T1/2
Method: (§1) (4) Metabolic Stability Evaluation
(§2) Microsome experiment: human liver microsome: 0.5 mg/mL, Xenotech; rat liver microsome: 0.5 mg/mL, Xenotech; coenzyme (NADPH/NADH): 1 mM, Sigma Life Science; magnesium chloride: 5 mM, 100 mM phosphate buffer (pH 7.4).
(§3) Preparation of stock solution: a certain amount of the example compound powder and control compound powder were accurately weighed, and respectively dissolved to 5 mM with DMSO.
(§4) Preparation of phosphate buffer (100 mM, pH7.4): 150 mL of 0.5M potassium dihydrogen phosphate and 700 mL of 0.5M dipotassium hydrogen phosphate prepared beforehand were mixed, with pH of the mixture adjusted to 7.4 with 0.5M dipotassium hydrogen phosphate solution. Before use, the mixture was diluted by 5 folds with ultrapure water and magnesium chloride was added to obtain the phosphate buffer (100 mM), which contains 100 mM potassium phosphate, 3.3 mM magnesium chloride, and has pH 7.4.
(§5) NADPH regeneration system solution (containing 6.5 mM NADP, 16.5 mM G-6-P, 3 U/mL G-6-P D, 3.3 mM magnesium chloride) was prepared, and placed on wet ice before use.
(§6) Preparation of stop solution: a solution of 50 ng/mL propranolol hydrochloride and 200 ng/mL tolbutamide (internal standard) in acetonitrile. 25057.5 μL of phosphate buffer (pH 7.4) was taken into a 50 mL centrifuge tube, added with 812.5 μL of human liver microsome, and mixed well to obtain a liver microsome diluent with a protein concentration of 0.625 mg/mL. 25057.5 μL of phosphate buffer (pH 7.4) was taken into a 50 mL centrifuge tube, added with 812.5 μL of SD rat liver microsome, and mixed well to obtain a liver microsome diluent with a protein concentration of 0.625 mg/mL.
(§7) Incubation of the samples: the stock solutions of the corresponding compounds were respectively diluted to 0.25 mM with an aqueous solution containing 70% acetonitrile to obtain working solutions for later use. 398 μL of human liver microsome and rat liver microsome diluents were respectively taken and added to a 96-well incubation plate (N=2), added with 2 μL of 0.25 mM working solution respectively, and mixed well.
Determination of metabolic stability: 300 μL of pre-cooled stop solution was added to each well of a 96-well deep-well plate, and the plate was placed on ice as a stop plate. The 96-well incubation plate and the NADPH regeneration system were placed in a 37° C. water bath, shaken at 100 rpm, and pre-incubated for 5 minutes. 80 μL of incubation solution was taken out of each well of the incubation plate and added to the stop plate, mixed well, and supplemented with 20 μL of NADPH regeneration system solution to obtain the 0 min sample. Then 80 μL of NADPH regeneration system solution was added to each well of the incubation plate to initiate the reaction and start timing. The reaction concentration of the corresponding compound was 1 μM, and the protein concentration was 0.5 mg/mL. At 10, 30, and 90 minutes of reaction, 100 μL of the reaction solution was taken and added to the stop plate, and vortexed for 3 minutes to stop the reaction. The stop plate was centrifuged at 5000×g for 10 min at 4° C. 100 μL of supernatant was taken to a 96-well plate pre-added with 100 μL of distilled water, mixed well, and subjected to sample analysis by LC-MS/MS.
Data analysis: the peak areas of the corresponding compound and internal standard were detected through the LC-MS/MS system, and the ratio of the peak area of the compound to the internal standard was calculated. The natural logarithm of the remaining percentage of the compound was plotted against time to measure the slope and calculate t1/2 and CLint according to the following equations, where V/M is equal to 1/protein concentration.
The compounds of the present invention and the corresponding non-deuterated compounds were simultaneously tested for comparison and evaluated for the metabolic stability in human and rat liver microsomes. The non-deuterated compound Darolutamide was used as the control.

[2] = Metabolic stability evaluation, rat liver microsome; format: in vitro ADME; details: SD, liver microsomes, pH 7.4, rat liver microsome 0.5 mg/mL, compound 1 μM, NADPH, 37° C.; for microsomal CLint at 1 μM: read-out: RLM CL; for half-life at 1 μM: read-out: RLM T1/2
Method: as §1, §2, §3, §4, §5, §6, §7
Determination of metabolic stability: 300 μL of pre-cooled stop solution was added to each well of a 96-well deep-well plate, and the plate was placed on ice as a stop plate. […]
Data analysis: the peak areas of the corresponding compound and internal standard were detected through the LC-MS/MS system, and the ratio of the peak area of the compound to the internal standard was calculated. […]
The compounds of the present invention and the corresponding non-deuterated compounds were simultaneously tested for comparison and evaluated for the metabolic stability in human and rat liver microsomes. […]

Row | SMILES | microsomal CLint at 1 μM [1] [µL/min/mg] | half-life at 1 μM [1] [h] | microsomal CLint at 1 μM [2] [µL/min/mg] | half-life at 1 μM [2] [h]
1 | CC(O)c1cc(C(=O)N[C@@H](C)Cn2ccc(-c3ccc(C#N)c(Cl)c3)n2)[nH]n1 (stereo partly drawn) [Darolutamide, N—((S)-1-(3-(3-chloro-4-cyanophenyl)-1H-pyrazol-1-yl)-prop-2-yl)-5-(1-hydroxyethyl)-1H-pyrazole-3-carboxamide, reference compound] | 8.5 | 2.72 | 12.2 | 1.9
2 | [2H]C(C)(O)c1cc(C(=O)N[C@@H](C)Cn2ccc(-c3ccc(C#N)c(Cl)c3)n2)n[nH]1 (stereo partly drawn) [Example 1, N—((S)-1-(3-(3-chloro-4-cyanophenyl)-1H-pyrazol-1-yl)prop-2-yl)-5-(1-hydroxylethyl-1-d)-1H-pyrazole-3-carboxamide] | 6.2 | 3.7 |  | 
3 | [2H]C([2H])([2H])C(O)c1cc(C(=O)N[C@@H](C)Cn2ccc(-c3ccc(C#N)c(Cl)c3)n2)n[nH]1 (stereo partly drawn) [Example 2, N—((S)-1-(3-(3-chloro-4-cyanophenyl)-1H-pyrazol-1-yl)prop-2-yl)-5-(1-hydroxylethyl-2,2,2-d3)-1H-pyrazole-3-carboxamide] | 9.1 | 2.55 |  | 
4 | [2H]C([2H])([2H])C([2H])(O)c1cc(C(=O)N[C@@H](C)Cn2ccc(-c3ccc(C#N)c(Cl)c3)n2)n[nH]1 (stereo partly drawn) [Example 3, N—((S)-1-(3-(3-chloro-4-cyanophenyl)-1H-pyrazol-1-yl)prop-2-yl)-5-(1-hydroxylethyl-1,2,2,2-d4)-1H-pyrazole-3-carboxamide] | 4 | 5.83 |  | 
5 | [2H]C([2H])([C@H](C)NC(=O)c1cc(C(C)O)[nH]n1)n1ccc(-c2ccc(C#N)c(Cl)c2)n1 (stereo partly drawn) [Example 4, N—((S)-1-(3-(3-chloro-4-cyanophenyl)-1H-pyrazol-1-yl)prop-2-yl-1,1-d2)-5-(1-hydroxyethyl)-1H-pyrazole-3-carboxamide] | 8.5 | 2.7 |  | 
6 | [2H]C(C)(O)c1cc(C(=O)N[C@@H](C)C([2H])([2H])n2ccc(-c3ccc(C#N)c(Cl)c3)n2)n[nH]1 (stereo partly drawn) [Example 5, N—((S)-1-(3-(3-chloro-4-cyanophenyl)-1H-pyrazol-1-yl)prop-2-yl-1,1-d2)-5-(1-hydroxyethyl-1-d)-1H-pyrazole-3-carboxamide] | 4.3 | 5.36 |  | 
7 | [2H]C([2H])([2H])C(O)c1cc(C(=O)N[C@@H](C)C([2H])([2H])n2ccc(-c3ccc(C#N)c(Cl)c3)n2)n[nH]1 (stereo partly drawn) [Example 6, N—((S)-1-(3-(3-chloro-4-cyanophenyl)-1H-pyrazol-1-yl)prop-2-yl-1,1-d2)-5-(1-hydroxyethyl-2,2,2-d3)-1H-pyrazole-3-carboxamide] | 6.4 | 3.62 |  | 
8 | [2H]C([2H])([C@H](C)NC(=O)c1cc(C([2H])(O)C([2H])([2H])[2H])[nH]n1)n1ccc(-c2ccc(C#N)c(Cl)c2)n1 (stereo partly drawn) [Example 7, N—((S)-1-(3-(3-chloro-4-cyanophenyl)-1H-pyrazol-1-yl)prop-2-yl-1,1-d2)-5-(1-hydroxyethyl-1,2,2,2-d4)-1H-pyrazole-3-carboxamide] | 6.9 | 3.36 | 7.1 | 3.25
9 | [2H][C@](C)(Cn1ccc(-c2ccc(C#N)c(Cl)c2)n1)NC(=O)c1cc(C(C)O)[nH]n1 (stereo partly drawn) [Example 8, N—((S)-1-(3-(3-chloro-4-cyanophenyl)-1H-pyrazol-1-yl)prop-2-yl-2-d)-5-(1-hydroxyethyl)-1H-pyrazole-3-carboxamide] | 7.3 | 3.17 |  | 
10 | [2H]C([2H])([2H])[C@H](NC(=O)c1cc(C(C)O)[nH]n1)C([2H])([2H])n1ccc(-c2ccc(C#N)c(Cl)c2)n1 (stereo partly drawn) [Example 9, N—((S)-1-(3-(3-chloro-4-cyanophenyl)-1H-pyrazol-1-yl)prop-2-yl-1,1,3,3,3-d5)-5-(1-hydroxyethyl)-1H-pyrazole-3-carboxamide] | 8.1 | 2.85 |  | 
11 | [2H]C(C)(O)c1cc(C(=O)N[C@@H](C([2H])([2H])[2H])C([2H])([2H])n2ccc(-c3ccc(C#N)c(Cl)c3)n2)n[nH]1 (stereo partly drawn) [Example 10, N—((S)-1-(3-(3-chloro-4-cyanophenyl)-1H-pyrazol-1-yl)prop-2-yl-1,1,3,3,3-d5)-5-(1-hydroxyethyl-1-d)-1H-pyrazole-3-carboxamide] | 4.4 | 5.29 |  | 
